Experimental data from patent US8952024B2, “Herbicidal pyrimidone derivatives” (E I du Pont de Nemours and Company, priority 2009, dated 2015).

What was measured:
Type in all cases: in vivo
[1] = system: ducksalad (Heteranthera limosa); experiment: Test B flooded paddy test; conditions: for Plant response rating, Flood, Ducksalad: 250 g ai/ha, flooded paddy test, visual rating on 0 to 100 scale (0 no effect, 100 complete control) after 13 to 15 days; for Plant response rating, Ducksalad: Flood (flooded paddy test), 13 to 15 days
Outline: (§1)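 2-leaf seedlings; pots flooded 3 cm over soil at treatment; cpd dosed into floodwater, depth kept constant. Greenhouse 13–15 d. Visual rating vs untreated controls, 0 = no effect, 100 = complete control.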

[2] = system: rice (Oryza sativa); experiment: Test B flooded paddy test; conditions: for Plant response rating, Flood, Rice: 250 g ai/ha, flooded paddy test, visual rating on 0 to 100 scale (0 no effect, 100 complete control) after 13 to 15 days; for Plant response rating, Rice: Flood (flooded paddy test), 13 to 15 days
Outline: as §1

[3] = system: barnyardgrass (Echinochloa crus-galli); experiment: Test B flooded paddy test; conditions: for Plant response rating, Flood, Barnyardgrass: 250 g ai/ha, flooded paddy test, visual rating on 0 to 100 scale (0 no effect, 100 complete control) after 13 to 15 days; for Plant response rating, Barnyardgrass: Flood (flooded paddy test), 13 to 15 days
Outline: as §1

[4] = system: umbrella sedge (Cyperus difformis); experiment: Test B flooded paddy test; conditions: for Plant response rating, Flood, Sedge, Umbrella: 250 g ai/ha, flooded paddy test, visual rating on 0 to 100 scale (0 no effect, 100 complete control) after 13 to 15 days; for Plant response rating, Sedge, Umbrella: Flood (flooded paddy test), 13 to 15 days
Outline: as §1

[5] = system: pigweed (Amaranthus retroflexus); experiment: Test A pre-/postemergence plant response
Outline: (§2)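 Plants grown from seed in a loam soil and sand mix received test compounds both as a preemergence soil spray and, at the same time, as a postemergence spray at the one- to two-leaf stage. Injury was judged visually against untreated controls roughly ten days later, 0 meaning no effect and 100 complete control.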

[6] = system: barnyardgrass (Echinochloa crus-galli); experiment: Test A pre-/postemergence plant response; conditions: for Barnyardgrass plant response rating: visual injury, 0 to 100 scale (0 no effect, 100 complete control), approx. ten days
Outline: as §2

[7] = system: giant foxtail (Setaria faberii); experiment: Test A pre-/postemergence plant response
Outline: as §2

[8] = system: wheat (Triticum aestivum); experiment: Test A pre-/postemergence plant response
Outline: as §2

[9] = system: velvetleaf (Abutilon theophrasti); experiment: Test A pre-/postemergence plant response
Outline: as §2

[10] = system: large crabgrass (Digitaria sanguinalis); experiment: Test A pre-/postemergence plant response; conditions: for Crabgrass, Large plant response rating: visual injury, 0 to 100 scale (0 no effect, 100 complete control), approx. ten days
Outline: as §2

[11] = system: morningglory (Ipomoea spp.); experiment: Test A pre-/postemergence plant response
Outline: as §2

[12] = system: corn (Zea mays); experiment: Test A pre-/postemergence plant response; conditions: for Corn plant response rating: visual injury, 0 to 100 scale (0 no effect, 100 complete control), approx. ten days
Outline: as §2

[13] = 62 g ai/ha, scale of 0 to 100 where 0 is no effect and 100 is complete control
[14] = Postemergence, 125 g ai/ha, 0 to 100 scale where 0 is no effect and 100 is complete control
[15] = Postemergence, 500 g ai/ha, visual injury, 0 to 100 scale (0 no effect, 100 complete control), approx. ten days
[16] = Preemergence, 125 g ai/ha, 0 to 100 scale, 0 = no effect, 100 = complete control
[17] = Preemergence, 500 g ai/ha, 0 to 100 scale, 0 = no effect, 100 = complete control
[18] = 125 g ai/ha, scale 0 to 100, 0 is no effect, 100 is complete control
[19] = Flood, 31 g ai/ha, scale 0 to 100 (0 no effect, 100 complete control)
[20] = Postemergence, 125 g ai/ha, visual injury, 0 to 100 scale (0 no effect, 100 complete control), approx. ten days
[21] = Preemergence, 125 g ai/ha, 0 to 100 scale where 0 is no effect and 100 is complete control, approximately ten days

CCn1c(-c2cccc(C)c2)ncc(C(=O)C2=C(O)C3CCC(C3)C2=O)c1=O (stereo not shown) [Compound 231]
60: Plant response rating, Barnyardgrass [6, 17] | Plant response rating, Foxtail, Giant [7, 14] | Plant response rating, Foxtail, Giant [7, 17] | Plant response rating, Velvetleaf [9, 17]
10: Plant response rating, Morningglory [11, 16]
0: Plant response rating, Flood, Ducksalad [1] | Plant response rating, Ducksalad [1, 13] | Plant response rating, Flood, Rice [2] | Plant response rating, Rice [2, 13] | Plant response rating, Sedge, Umbrella [4, 13] | Plant response rating, Barnyardgrass [6, 16] | Plant response rating, Foxtail, Giant [7, 16] | Plant response rating, Wheat [8, 14] | Wheat plant response rating [8, 15] | Plant response rating, Wheat [8, 16] | Plant response rating, Wheat [8, 17] | Plant response rating, Corn [12, 14] | Plant response rating, Corn [12, 16]
40: Plant response rating, Flood, Barnyardgrass [3] | Plant response rating, Barnyardgrass [3, 13] | Plant response rating, Crabgrass, Large [10, 16] | Corn plant response rating ([12]; Postemergence, 500 g ai/ha)
80: Plant response rating, Pigweed [5, 14] | Plant response rating, Pigweed [5, 17] | Foxtail, Giant plant response rating [7, 15] | Plant response rating, Morningglory [11, 17]
75: Plant response rating, Flood, Sedge, Umbrella [4]
70: Plant response rating, Barnyardgrass [6, 14] | Crabgrass, Large plant response rating ([10]; Postemergence, 500 g ai/ha)
100: Velvetleaf plant response rating [9, 15] | Morningglory plant response rating [11, 15]
20: Plant response rating, Corn [12, 17]
90: Pigweed plant response rating [5, 15] | Barnyardgrass plant response rating ([6]; Postemergence, 500 g ai/ha) | Plant response rating, Velvetleaf [9, 14] | Plant response rating, Crabgrass, Large [10, 17] | Plant response rating, Morningglory [11, 14]
50: Plant response rating, Pigweed [5, 16] | Plant response rating, Velvetleaf [9, 16] | Plant response rating, Crabgrass, Large [10, 14]

O=C(C1=C(O)C2CCC(C2)C1=O)c1cnc(-c2ccccc2)n(C2CCCCC2)c1=O (stereo not shown) [Compound 248]
60: Plant response rating, Velvetleaf [9, 17]
10: Plant response rating, Foxtail, Giant [7, 21] | Plant response rating, Crabgrass, Large [10, 21]
0: Plant response rating, Flood, Rice [2] | Plant response rating, Rice [2, 13] | Plant response rating, Rice [2, 18] | Rice plant response rating [2, 19] | Plant response rating, Barnyardgrass [3, 13] | Plant response rating, Barnyardgrass [3, 18] | Barnyardgrass plant response rating [3, 19] | Plant response rating, Pigweed [5, 21] | Plant response rating, Barnyardgrass [6, 21] | Plant response rating, Wheat [8, 20] | Wheat plant response rating [8, 15] | Plant response rating, Wheat [8, 21] | Plant response rating, Morningglory [11, 21] | Plant response rating, Corn [12, 14] | Plant response rating, Corn [12, 21]
30: Plant response rating, Barnyardgrass [6, 17] | Corn plant response rating ([12]; Postemergence, 500 g ai/ha)
100: Barnyardgrass plant response rating ([6]; Postemergence, 500 g ai/ha) | Foxtail, Giant plant response rating [7, 15] | Plant response rating, Velvetleaf [9, 20] | Velvetleaf plant response rating [9, 15] | Plant response rating, Morningglory [11, 20] | Morningglory plant response rating [11, 15]
90: Plant response rating, Flood, Ducksalad [1] | Pigweed plant response rating [5, 15] | Plant response rating, Barnyardgrass [6, 14]
75: Ducksalad plant response rating [1, 19] | Plant response rating, Sedge, Umbrella [4, 18]
50: Sedge, Umbrella plant response rating [4, 19] | Plant response rating, Foxtail, Giant [7, 20] | Plant response rating, Crabgrass, Large [10, 14]
85: Plant response rating, Flood, Sedge, Umbrella [4]
80: Plant response rating, Ducksalad [1, 13] | Plant response rating, Ducksalad [1, 18] | Plant response rating, Pigweed [5, 20] | Crabgrass, Large plant response rating ([10]; Postemergence, 500 g ai/ha)
65: Plant response rating, Sedge, Umbrella [4, 13]
20: Plant response rating, Foxtail, Giant [7, 17] | Plant response rating, Wheat [8, 17] | Plant response rating, Velvetleaf [9, 21] | Plant response rating, Corn [12, 17]
40: Plant response rating, Flood, Barnyardgrass [3] | Plant response rating, Pigweed [5, 17] | Plant response rating, Morningglory [11, 17]
70: Plant response rating, Crabgrass, Large [10, 17]
